Data from patent US8603527B2, “Pharmaceutical formulations of a substituted diaminopurine” (Signal Pharmaceuticals, LLC, priority 2010, dated 2013).

Assay: Pharmacokinetics (plasma and urine) of ascending multiple oral doses in healthy volunteers
Type: in vivo, human
Parameters: Cmax: unit: ng/mL
Conditions: for AUC(0-∞) / Cmax / Ctrough / RA (ratio of accumulation) / t1/2 / Tmax: Day 14 (N = 8); for AUC(0-∞) / Cmax / Ctrough / RA (ratio of accumulation) / t1/2 / AUC(0-τ): geometric mean; for Tmax: median; for AUC(0-τ): Day 14, τ = 24 hours (N = 8)
Text: Subjects: Forty healthy male and female subjects between the ages of 20 and 50 were enrolled in the study. All subjects were in good health as determined by a medical history, physical examination, 12-lead ECG, serum biochemistry, hematology, urinalysis and virology. Subjects were not permitted to take any prescribed medication within 30 days or non-prescribed medication within 7 days of the first dose administration.
Study Design: This study was a randomized, double-blind, placebo-controlled, ascending-dose trial to evaluate the safety, tolerability and pharmacokinetics (PK) of multiple oral doses of Compound I. Subjects were enrolled into 1 of the 4 cohorts, 10 subjects per cohort (active:placebo=8:2). Subjects received a multiple oral dose of 25, 50, 100, or 200 mg unformulated Compound I in a capsule, or matching placebo, once daily (QD) for 14 days.
Assessments: Safety and tolerability were assessed by adverse event (AE) monitoring, clinical laboratory testing, vital sign measurement, 12-lead ECG measurement, concomitant medication assessment, and physical examination. Blood and urine samples were collected to assess the PK profile of Compound I and the S-cis isomer of Compound I. Blood samples (˜5 mL) for plasma PK analysis were collected in K2-EDTA vacutainer tubes to yield approximately 2 mL of plasma at each of the following time points: (i) Day 1: before dosing, and 0.25, 0.5, 1, 1.5, 2, 2.5, 3, 4, 6, 8, 10, 12, 16, and 24 hours after dosing; (ii) Day 3 to Day 9: before dosing; (iii) Day 10: before dosing, and 0.25, 0.5, 1, 1.5, 2, 2.5, 3, 4, 6, 8, 10, 12, and 16 hours after dosing; (iv) Day 11 to Day 13: before dosing; (v) Day 14: before dosing, and 0.25, 0.5, 1, 1.5, 2, 2.5, 3, 4, 6, 8, 10, 12, 16, 24, 48, 72, 96, 120, 144, and 168 hours after dosing. Urine samples for the PK analysis were collected as a single block at: (i) Day 1: before dosing (spot collection), 0 to 8, 8 to 16, and 16 to 24 hours after dosing; and (ii) Day 14: 0 to 8, 8 to 16, and 16 to 24 hours after dosing. Both plasma and urine concentrations of Compound I and its S-cis isomer were measured using validated liquid chromatography-tandem mass spectrometry (LC/MS/MS).
Data Analysis: Safety data were summarized using descriptive statistics by treatment. PK parameters for Compound I and its S-cis isomer were calculated using non-compartmental analysis using WinNonlin (Version 5.0.1 or greater; Pharsight Corporation, Mountain View, Calif.). Dose proportionality and dose independence were evaluated by visual inspection. Intra-subject variability was assessed using an ANOVA model using data from Days 10 and 14.

[1] = S-cis isomer in plasma after Compound I 25 mg QD
[2] = S-cis isomer in plasma after Compound I 50 mg QD
[3] = S-cis isomer in plasma after Compound I 100 mg QD
[4] = S-cis isomer in plasma after Compound I 200 mg QD

In the case of `OC1CCC(Nc2ncc3nc(Nc4c(F)cc(F)cc4F)n(C4CCOC4)c3n2)CC1` (stereo not drawn) [S-cis isomer of Compound I], the “AUC(0-∞)” value [1] is reported as 180.14 ng·h/mL, the Cmax [1] is reported as 5.43 ng/mL and the Ctrough [1] is reported as 2.33 ng/mL. For the same molecule, the “RA (ratio of accumulation)” value [1] was 2.02, the t1/2 [1] was 28.82 h and the Tmax [1] was 2.5 h. The “AUC(0-τ)” value [1] was 78.40 ng·h/mL, the “AUC(0-∞)” value [2] was 365.88 ng·h/mL and the Cmax [2] was 11.61 ng/mL. The Ctrough [2] was 4.93 ng/mL, the “RA (ratio of accumulation)” value [2] was 2.28 and the t1/2 [2] was 25.39 h. The Tmax [2] was 3.0 h, the “AUC(0-τ)” value [2] was 177.01 ng·h/mL and the “AUC(0-∞)” value [3] was 541.06 ng·h/mL. The Cmax [3] was 14.87 ng/mL, the Ctrough [3] was 7.14 ng/mL and the “RA (ratio of accumulation)” value [3] was 1.88. For the same molecule, the t1/2 [3] was 28.17 h, the Tmax [3] was 2.5 h and the “AUC(0-τ)” value [3] was 237.26 ng·h/mL. For the same molecule, the “AUC(0-∞)” value [4] was 804.07 ng·h/mL, the Cmax [4] was 27.69 ng/mL and the Ctrough [4] was 10.90 ng/mL. The “RA (ratio of accumulation)” value [4] was 1.50, the t1/2 [4] was 23.93 h and the Tmax [4] was 2.5 h. For the same molecule, the “AUC(0-τ)” value [4] was 404.33 ng·h/mL and the “systemic exposure relative to that of Compound I” value (after Compound I QD dosing) was “about 2%”.
